Test results reported in patent US20230146675A1, “PYRIMIDO[5,4-d]PYRIMIDINE DERIVATIVES AS ENT INHIBITORS FOR THE TREATMENT OF CANCERS, AND COMBINATION THEREOF WITH ADENOSINE RECEPTOR ANTAGONISTS” (ITEOS BELGIUM SA, priority 2020, published 2023).

The compounds below were run against T1, human ENT1 (Homo sapiens, UniProt Q99808) (assay: ENT1 binding assay (competition with Sahenta-DY647 on JAR cells)). Conditions: binned IC50.
T1 sequence (Q99808 1-456): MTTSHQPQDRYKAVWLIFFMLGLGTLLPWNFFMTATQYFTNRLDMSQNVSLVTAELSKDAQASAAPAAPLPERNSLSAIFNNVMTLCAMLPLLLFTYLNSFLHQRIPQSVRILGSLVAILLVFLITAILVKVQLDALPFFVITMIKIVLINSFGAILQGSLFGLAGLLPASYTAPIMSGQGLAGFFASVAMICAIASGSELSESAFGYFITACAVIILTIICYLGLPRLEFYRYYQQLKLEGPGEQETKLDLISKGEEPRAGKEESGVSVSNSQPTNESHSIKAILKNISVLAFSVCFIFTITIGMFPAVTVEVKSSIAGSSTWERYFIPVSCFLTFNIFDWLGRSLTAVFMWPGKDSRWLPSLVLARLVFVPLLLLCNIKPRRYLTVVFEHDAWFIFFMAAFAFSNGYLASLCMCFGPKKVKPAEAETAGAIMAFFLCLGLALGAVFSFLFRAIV
Parameters: JAR cells expressing ENT1 were bought from ATCC; host or cells: JAR cells
Method in brief: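 JAR cells were incubated with test compounds and the fluorescent ligand Sahenta-DY647 in competition. Plates were washed twice by centrifugation (4 min, 400 rcf, 4 °C). Binding potency was derived from the final fluorescence.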
With `COCCN(CCOC)c1nc(N2CCC(OC)CC2)c2nc(N(CCO)Cc3ccc(OC)c(OC)c3OC)nc(N3CCC(OC)CC3)c2n1` [Compound 185, 2-((6-(bis(2-methoxyethyl)amino)-4,8-bis(4-methoxypiperidin-1-yl)pyrimido[5,4-d]pyrimi<din-2-yl)(2,3,4-trimethoxybenzyl)amino)ethanol] the IC50 was less than 100 nM.
Work on `COCCN(Cc1ccc(C(=O)O)c(F)c1)c1nc(N2CCN(C)C(=O)C2)c2nc(N(CCOC)CCOC)nc(N3CCC(OC)CC3)c2n1` [Compound 336, 4-(((6-(bis(2-methoxyethyl)amino)-8-(4-methoxypiperidin-1-yl)-4-(4-methyl-3-oxopiperazin-1-yl)pyrimido[5,4-d]pyrimidin-2-yl)(2-methoxyethyl)amino)methyl)-2-fluorobenzoic acid] yielded an IC50 of less than 100 nM.
`COCCN(CCOC)c1nc(N2CCC(OC)CC2)c2nc(N(CCOC)CCOC)nc(OCc3cccc(Cl)c3)c2n1` [Compound 155, 4-((3-chlorobenzyl)oxy)-N2,N2,N6,N6-tetrakis(2-methoxyethyl)-8-(4-methoxypiperidin-1-yl)pyrimido[5,4-d]pyrimidine-2,6-diamine] showed an IC50 of less than 100 nM.
Compound `COCCN(CCOC)c1nc(N2CCC(OC)CC2)c2nc(N(CCOC)CCOC)nc(N(C)Cc3ccncc3)c2n1` [Compound 82, N2,N2,N6,N6-tetrakis(2-methoxyethyl)-8-(4-methoxypiperidin-1-yl)-N4-methyl-N4-(pyridin-4-ylmethyl)pyrimido[5,4-d]pyrimidine-2,4,6-triamine] has an IC50 of 100 to 500 nM.
Work on `COCCN(CCOC)c1nc(N2CCC(OC)CC2)c2nc(N3CCN(S(C)(=O)=O)CC3)nc(N3CCC(OC)CC3)c2n1` [Compound 30, N,N-bis(2-methoxyethyl)-4,8-bis(4-methoxypiperidin-1-yl)-6-(4-(methylsulfonyl)piperazin-1-yl)pyrimido[5,4-d]pyrimidin-2-amine] yielded an IC50 of 500 to 1000 nM.
Compound `CCNc1nc(N(CCOC)CCOC)nc2c(N3CCC(OC)CC3)nc(N(CCOC)CCOC)nc12` [Compound 126, N4-ethyl-N2,N2,N6,N6-tetrakis(2-methoxyethyl)-8-(4-methoxypiperidin-1-yl)pyrimido[5,4-d]pyrimidine-2,4,6-triamine] has an IC50 of 500 to 1000 nM.
With `COCCN(CCOC)c1nc(N2CCN(c3ncn(C)n3)CC2)c2nc(N(CCOC)CCOC)nc(NCc3cccc(OC)c3)c2n1` [Compound 222, N4-(3-methoxybenzyl)-N2,N2,N6,N6-tetrakis(2-methoxyethyl)-8-(4-(1-methyl-1H-1,2,4-triazol-3-yl)piperazin-1-yl)pyrimido[5,4-d]pyrimidine-2,4,6-triamine] the IC50 was less than 100 nM.
Work on `CCOC(=O)C1CCN(c2nc(N(CCOC)CCOC)nc3c(N4CCC(C(=O)OCC)CC4)nc(N(CCO)CCO)nc23)CC1` [Compound 14, diethyl 1,1′-(2-(bis(2-hydroxyethyl)amino)-6-(bis(2-methoxyethyl)amino)pyrimido[5,4-d]pyrimidine-4,8-diyl)bis(piperidine-4-carboxylate)] yielded an IC50 of 500 to 1000 nM.
`COCCN(CCOC)c1nc(N2CCC(F)(F)C2)c2nc(N(CCOC)CCOC)nc(N3CCC(OC)CC3)c2n1` [Compound 109, 4-(3,3-difluoropyrrolidin-1-yl)-N2,N2,N6,N6-tetrakis(2-methoxyethyl)-8-(4-methoxypiperidin-1-yl)pyrimido[5,4-d]pyrimidine-2,6-diamine] showed an IC50 of 100 to 500 nM.
Work on `COCCN(CCOC)c1nc(N2CCC(OC)CC2)c2nc(N(CCOC)CCOCCCN3CCN(C)CC3)nc(N3CCC(OC)CC3)c2n1` [Compound 16, N2,N2,N6-tris(2-methoxyethyl)-4,8-bis(4-methoxypiperidin-1-yl)-N6-(2-(3-(4-methylpiperazin-1-yl)propoxy)ethyl)pyrimido[5,4-d]pyrimidine-2,6-diamine] yielded an IC50 of 500 to 1000 nM.
In the case of `COCCN(Cc1cc(OC)c(OC)c(OC)c1)c1nc(N2CCN(C)C(=O)C2)c2nc(N(CCOC)CCOC)nc(N3CCC(OC)CC3)c2n1` [Compound 268, 4-(6-(bis(2-methoxyethyl)amino)-2-((2-methoxyethyl)(3,4,5-trimethoxybenzyl)amino)-8-(4-methoxypiperidin-1-yl)pyrimido[5,4-d]pyrimidin-4-yl)-1-methylpiperazin-2-one], the IC50 is reported as less than 100 nM.
For `COCCN(CCOC)c1nc(N2CCN(C)C(=O)C2)c2nc(N(CCOC)CCOC)nc(NCC(C)C)c2n1` [Compound 215, 4-(2,6-bis(bis(2-methoxyethyl)amino)-8-(isobutylamino)pyrimido[5,4-d]pyrimidin-4-yl)-1-methylpiperazin-2-one], the IC50 was 100 to 500 nM.
Work on `COCCN(CCOC)c1nc(N2CCC(OC)CC2)c2nc(N(CCOC)CCOC)nc(OCc3cnn(C(C)C)c3)c2n1` [Compound 164, 4-((1-isopropyl-1H-pyrazol-4-yl)methoxy)-N2,N2,N6,N6-tetrakis(2-methoxyethyl)-8-(4-methoxypiperidin-1-yl)pyrimido[5,4-d]pyrimidine-2,6-diamine] yielded an IC50 of 500 to 1000 nM.
For `COCCN(CCOC)c1nc(N2CC(=O)N(C)C(C)(C)C2)c2nc(N(CCO)CCO)nc(N3CCC(OC)CC3)c2n1` [Compound 312, 4-(6-(bis(2-hydroxyethyl)amino)-2-(bis(2-methoxyethyl)amino)-8-(4-methoxypiperidin-1-yl)pyrimido[5,4-d]pyrimidin-4-yl)-1,6,6-trimethylpiperazin-2-one], the IC50 was 100 to 500 nM.
Work on `CCN(CCN1CCCCC1)c1nc(N2CCC(OC)CC2)c2nc(N(CCOC)CCOC)nc(N3CCC(OC)CC3)c2n1` [Compound 133, N2-ethyl-N6,N6-bis(2-methoxyethyl)-4,8-bis(4-methoxypiperidin-1-yl)-N2-(2-(piperidin-1-yl)ethyl)pyrimido[5,4-d]pyrimidine-2,6-diamine] yielded an IC50 of 500 to 1000 nM.
`COCCN(CCn1ccnc1)c1nc(N2CCN(C)C(=O)C2)c2nc(N(CCOC)CCOC)nc(N3CCC(OC)CC3)c2n1` [Compound 285, 4-(2-((2-(1H-imidazol-1-yl)ethyl)(2-methoxyethyl)amino)-6-(bis(2-methoxyethyl)amino)-8-(4-methoxypiperidin-1-yl)pyrimido[5,4-d]pyrimidin-4-yl)-1-methylpiperazin-2-one] gave an IC50 of 100 to 500 nM.
`COCCN(CCOC)c1nc(N2CC[C@H](F)C2)c2nc(N(CCOC)CCOC)nc(N3CCC(OC)CC3)c2n1` [Compound 102, (S)-4-(3-fluoropyrrolidin-1-yl)-N2,N2,N6,N6-tetrakis(2-methoxyethyl)-8-(4-methoxypiperidin-1-yl)pyrimido[5,4-d]pyrimidine-2,6-diamine] was tested, and the IC50 was less than 100 nM.
`COCCN(CCOC)c1nc(N2CCN(C)C(=O)C2)c2nc(N3CCn4cncc4C3)nc(N3CCC(OC)CC3)c2n1` [Compound 298, 4-(2-(bis(2-methoxyethyl)amino)-6-(5,6-dihydroimidazo[1,5-a]pyrazin-7(8H)-yl)-8-(4-methoxypiperidin-1-yl)pyrimido[5,4-d]pyrimidin-4-yl)-1-methylpiperazin-2-one] was tested, and the IC50 was 500 to 1000 nM.
Compound `COCCN(CCOC)c1nc(N2CCC(F)(F)CC2)c2nc(N(CCOC)CCOC)nc(N3CCC(OC)CC3)c2n1` [Compound 200, 4-(4,4-difluoropiperidin-1-yl)-N2,N2,N6,N6-tetrakis(2-methoxyethyl)-8-(4-methoxypiperidin-1-yl)pyrimido[5,4-d]pyrimidine-2,6-diamine] has an IC50 of less than 100 nM.
Compound `COCCN(CCOC)c1nc(N2CCC(OC)CC2)c2nc(N(CCOC)CCOC)nc(N3CCCOCC3)c2n1` [Compound 79, N2,N2,N6,N6-tetrakis(2-methoxyethyl)-4-(4-methoxypiperidin-1-yl)-8-(1,4-oxazepan-4-yl)pyrimido[5,4-d]pyrimidine-2,6-diamine] has an IC50 of less than 100 nM.
`COCCN(CCOC)c1nc(N2CCN(C)C(=O)C2)c2nc(N(CCOC)CCOC)nc(N3CCN(c4ncn(C)n4)CC3)c2n1` [Compound 216, 4-(2,6-bis(bis(2-methoxyethyl)amino)-8-(4-(1-methyl-1H-1,2,4-triazol-3-yl)piperazin-1-yl)pyrimido[5,4-d]pyrimidin-4-yl)-1-methylpiperazin-2-one] showed an IC50 of 100 to 500 nM.
`COCCN(CCOC)c1nc(N2CCN(C)C(=O)C2)c2nc(N(CCOC)Cc3ccc(OC)c(OC)c3OC)nc(N3CCC(OC)CC3)c2n1` [Compound 303, 4-(2-(bis(2-methoxyethyl)amino)-6-((2-methoxyethyl)(2,3,4-trimethoxybenzyl)amino)-8-(4-methoxypiperidin-1-yl)pyrimido[5,4-d]pyrimidin-4-yl)-1-methylpiperazin-2-one] showed an IC50 of less than 100 nM.
`COCCN(CCOC)c1nc(N2CCN(c3ncn(C)n3)CC2)c2nc(N(CCOC)CCOC)nc(N(C)Cc3ccc(F)c(F)c3)c2n1` [Compound 247, N4-(3,4-difluorobenzyl)-N2,N2,N6,N6-tetrakis(2-methoxyethyl)-N4-methyl-8-(4-(1-methyl-1H-1,2,4-triazol-3-yl)piperazin-1-yl)pyrimido[5,4-d]pyrimidine-2,4,6-triamine] showed an IC50 of 100 to 500 nM.
For `COCCN(CCOC)c1nc(N2CCC(O)C2)c2nc(N(CCOC)CCOC)nc(N3CCC(OC)CC3)c2n1` (stereo not shown) [Compound 94, 1-(2,6-bis(bis(2-methoxyethyl)amino)-8-(4-methoxypiperidin-1-yl)pyrimido[5,4-d]pyrimidin-4-yl)pyrrolidin-3-ol], the IC50 was 500 to 1000 nM.
`CCN1CCN(c2nc(N(CCOC)CCOC)nc3c(N4CCC(OC)CC4)nc(N(CCOC)CCOC)nc23)CC1=O` [Compound 198, 4-(2,6-bis(bis(2-methoxyethyl)amino)-8-(4-methoxypiperidin-1-yl)pyrimido[5,4-d]pyrimidin-4-yl)-1-ethylpiperazin-2-one] showed an IC50 of 100 to 500 nM.
